Results published in patent publication US4831026A, “2-oxa-isocephem compounds, compositions containing same and processes of using” (Otsuka Pharmaceutical Co., Ltd., priority 1985, dated 1989).
Read-outs that look alike come from different tables or passages of the source.

Experiments:
[1] = test system: S. aureus FDA-209-p; assay: Antimicrobial activity test: MIC by the agar plate dilution method, S. aureus FDA-209-p; format: cell-based, Staphylococcus aureus; conditions: inoculum 1×10^6 cells/ml
Description: (§1) In order to investigate the in vitro activity of the under-mentioned compounds against various bacteria, the minimal inhibitory concentration (MIC) values were determined by the agar plate dilution method [see Chemotherapy, 22, 1126-1128 (1974)].
(§2) Each test inoculum was adjusted to 1×10^6 cells/ml (O.D., 600 mμ: 0.07-0.16).

[2] = test system: E. coli NIHJ; assay: Antimicrobial activity test: MIC by the agar plate dilution method, E. coli NIHJ; format: cell-based; conditions: inoculum 1×10^6 cells/ml
Description: as §1, §2

[3] = test system: E. coli No. 29; assay: Antimicrobial activity test: MIC by the agar plate dilution method, E. coli No. 29; format: cell-based
Description: as §1, §2

[4] = test system: K. pneumoniae NCTC-9632; assay: Antimicrobial activity test: MIC by the agar plate dilution method, K. pneumoniae NCTC-9632; format: cell-based; conditions: inoculum 1×10^6 cells/ml
Description: as §1, §2

[5] = test system: P. mirabilis 1287; assay: Antimicrobial activity test: MIC by the agar plate dilution method, P. mirabilis 1287; format: cell-based; conditions: P. mirabilis 1287; inoculum 1×10^6 cells/ml
Description: as §1, §2

[6] = test system: M. morganii ATCC-25830; assay: Antimicrobial activity test: MIC by the agar plate dilution method, M. morganii ATCC-25830; format: cell-based; conditions: inoculum 1×10^6 cells/ml
Description: as §1, §2

[7] = test system: S. marcescens IFO-12648; assay: Antimicrobial activity test: MIC by the agar plate dilution method, S. marcescens IFO-12648; format: cell-based
Description: as §1, §2

[8] = test system: P. aeruginosa NCTC-10490; assay: Antimicrobial activity test: MIC by the agar plate dilution method, P. aeruginosa NCTC-10490; format: cell-based; conditions: inoculum 1×10^6 cells/ml
Description: as §1, §2

[9] = E. coli No. 29, inoculum 1×10^6 cells/ml
[10] = S. marcescens IFO-12648, inoculum 1×10^6 cells/ml

Substance | MIC [1] | MIC [2] | MIC [3, 9] | MIC [4] | MIC [5] | MIC [6] | MIC [7, 10] | MIC [8] | MIC [7] | MIC [3]
7-[2-(2-Aminothiazol-4-yl)-2-allyloxyiminoacetamido]-3-[(1,3,4-thiadiazol- 2-yl)thiomethyl]- Δ^3 -O-2-isocephem-4-carboxylic acid (syn-isomer) [No. 3] | 0.78 µg/mL | ≤ 0.025 µg/mL | ≤ 0.025 µg/mL | 0.1 µg/mL | ≤ 0.025 µg/mL | ≤ 0.025 µg/mL | 0.2 µg/mL | 12.5 µg/mL |  | 
7-[2-(2-Aminothiazol-4-yl)-2-benzyloxyiminoacetamido]-3-[(1,3,4-thiadiazol-2-yl)thiomethyl]-Δ^3 -O-2-isocephem-4-carboxylic acid trifluoroacetate (syn-isomer) [No. 13] | 0.1 µg/mL | ≤ 0.025 µg/mL | ≤ 0.025 µg/mL | ≤ 0.025 µg/mL | ≤ 0.025 µg/mL | ≤ 0.025 µg/mL | 0.1 µg/mL | 1.56 µg/mL |  | 
7-[2-(2-Aminothiazol-4-yl)-2-cyanomethyloxyiminoacetamido]-3-[(1,2,3-thiadiazol-5-yl)thiomethyl]-Δ^3 -O-2-isocephem-4-carboxylic acid trifluoroacetate (syn-isomer) [Example 55] | 0.2 µg/mL | ≤ 0.025 µg/mL | ≤ 0.025 µg/mL | ≤ 0.025 µg/mL | ≤ 0.025 µg/mL | ≤ 0.025 µg/mL | 0.1 µg/mL | 1.56 µg/mL |  | 
7-[2-(2-Aminothiazol-4-yl)-2-cyanomethyloxyiminoacetamido]-3-[(1,3,4-thiadiazol-2-yl)thiomethyl]-Δ^3 -O-2-isocephem-4-carboxylic acid trifluoroacetate (syn-isomer) [No. 11] | 0.78 µg/mL | 0.39 µg/mL | 0.2 µg/mL | 0.39 µg/mL | 0.05 µg/mL | 0.1 µg/mL | 1.56 µg/mL | 1.56 µg/mL |  | 
7-[2-(2-Aminothiazol-4-yl)-2-cyclopropvlmethyloxyiminoacetamido]-3-[(1,2,3- thiadiazol-5-yl)thiomethyl]-Δ^3 -O-2-isocephem-4-carboxylic acid (syn-isomer) [Example 57] | 0.1 µg/mL | 0.2 µg/mL | 0.1 µg/mL | 0.39 µg/mL | 0.1 µg/mL | 0.05 µg/mL |  | 0.78 µg/mL | 0.78 µg/mL | 
7-[2-(2-Aminothiazol-4-yl)-2-cyclopropylmethyloxyiminoacetamido]-3-[(1,3,4-thiadiazol-2-yl)thiomethyl]-Δ^3 -O-2-isocephem-4-carboxylic acid trifluoroacetate (syn-isomer) [No. 10] | 0.05 µg/mL | ≤ 0.025 µg/mL | 0.05 µg/mL | 0.05 µg/mL | ≤ 0.025 µg/mL | ≤ 0.025 µg/mL | 0.05 µg/mL | 3.13 µg/mL |  | 
7-[2-(2-Aminothiazol-4-yl)-2-ethoxyiminoacetamido]-3-[(1,3,4-thiadiazol-2-yl)thiomethyl]-Δ^3 -O-2-isocephem-4-carboxylic acid (syn-isomer) [Example 29] | 0.05 µg/mL | ≤ 0.025 µg/mL | ≤ 0.025 µg/mL | 0.05 µg/mL | ≤ 0.025 µg/mL | ≤ 0.025 µg/mL | 0.2 µg/mL | 6.25 µg/mL |  | 
7-[2-(2-Aminothiazol-4-yl)-2-methoxyiminoacetamido]-3-[(1,2,3-thiadiazol-5-yl)thiomethyl]-Δ^3 -O-2-isocephem-4-carboxylic acid trifluoroacetate (syn-isomer) [No. 14] | 0.1 µg/mL | ≤ 0.025 µg/mL | ≤ 0.025 µg/mL | ≤ 0.025 µg/mL | ≤ 0.025 µg/mL | ≤ 0.025 µg/mL | 0.1 µg/mL | 1.56 µg/mL |  | 
7-[2-(2-Aminothiazol-4-yl)-2-methoxyiminoacetamido]-3-[(1,3,4-thiadiazol-2-yl)thiomethyl]- Δ^33 -O-2-isocephem-4-carboxylic acid (syn-isomer) [No. 2] | 1.56 µg/mL | 0.39 µg/mL |  | 0.78 µg/mL | 0.1 µg/mL | 0.2 µg/mL |  | 3.13 µg/mL | 0.78 µg/mL | 0.78 µg/mL
7-[2-(2-Aminothiazol-4-yl)-2-methoxyiminoacetamido]-3-[(1,4,5,6-tetrahydro-4-methyl-5,6-dioxo-1,2,4-triazin-3-yl)thiomethyl]-Δ^3 -O-2-isocephem-4-carboxylic acid (syn-isomer) [No. 4] | 0.78 µg/mL | ≤ 0.025 µg/mL | ≤ 0.025 µg/mL | ≤ 0.025 µg/mL | ≤ 0.025 µg/mL | ≤ 0.025 µg/mL | 0.2 µg/mL | 50 µg/mL |  | 
7-[2-(2-Aminothiazol-4-yl)-2-methoxyiminoacetamido]-3-[(carbamoyloxy)methyl]-Δ^3 -O-2-isocephem-4-carboxylic acid (syn-isomer) [No. 1] | 0.78 µg/mL | 0.2 µg/mL |  | 0.39 µg/mL | 0.1 µg/mL | 0.1 µg/mL |  | 1.56 µg/mL | 0.78 µg/mL | 0.39 µg/mL
7-[2-(2-Aminothiazol-4-yl)-2-methylthiomethoxyiminoacetamido]-3-[(1,3,4-thiadiazol-2-yl)thiomethyl]-Δ^3 -O-2-isocephem-4-carboxylic acid (syn-isomer) [No. 12] | 0.2 µg/mL | ≤ 0.025 µg/mL | ≤ 0.025 µg/mL | 0.05 µg/mL | ≤ 0.025 µg/mL | ≤ 0.025 µg/mL | 0.1 µg/mL | 3.13 µg/mL |  | 
7-[2-(2-Aminothiazol-4-yl)-2-propargyloxyiminoacetamido]3-[(1,3,4-thiadiazol-2-yl)thiomethyl-66^3 -O-b 2-isocephem-4-carboxylic acid trifluoroacetate (syn-isomer) [No. 7] |  | ≤ 0.025 µg/mL | 0.1 µg/mL | 0.1 µg/mL | ≤ 0.025 µg/mL | 0.05 µg/mL | 0.2 µg/mL | 0.78 µg/mL |  | 
7-[2-(2-Formamidothiazol-4-yl)-2-(2-chloroethoxy)iminoacetamido]-3-[(1,3,4- thiadiazol-2-yl)thiomethyl-]-Δ^3 -O-2-isocephem-4-carboxylic acid (syn-isomer) [Example 33] |  | 0.1 µg/mL | 0.2 µg/mL | 0.1 µg/mL | 0.05 µg/mL | 0.2 µg/mL |  | 1.56 µg/mL | 0.78 µg/mL | 
(6S,7S)-7-[2-(2-Aminothiazol-4-yl}-2methoxyiminoacetamido]-3-[(1,3,4-thiadiazol-2-yl)thiomethyl]-Δ^3 -O-2-isocephem-4-carboxylic acid trifluoroacetate (syn-isomer) [No. 15] |  | ≤ 0.025 µg/mL | ≤ 0.025 µg/mL | ≤ 0.025 µg/mL | ≤ 0.025 µg/mL | ≤ 0.025 µg/mL | 0.2 µg/mL | 1.56 µg/mL |  | 
Benzyl 7-[2-(2-chloroacetamidothiazol-4-yl)-2-cyclopentyloxyiminoacetamido]-3-[(1,3,4-thiadiazol-2- yl)thiomethyl]-Δ^3 -O-2-isocephem-4-carboxylate (syn-isomer) [Example 25] | 1.56 µg/mL |  | ≤ 0.025 µg/mL | 0.05 µg/mL | ≤ 0.025 µg/mL | ≤ 0.025 µg/mL | 0.2 µg/mL | 0.78 µg/mL |  | 
Benzyl 7-[2-(2-trichloroacetamidothiazol-4-yl)-2-methoxyiminoacetamido]-3-[(carbamoyloxy)methyl]-Δ^3 -O-2-isocephem-4-carboxylate (syn-isomer) [Example 5] | 3.13 µg/mL |  | 0.1 µg/mL | 0.1 µg/mL | ≤ 0.025 µg/mL | 0.05 µg/mL | 0.2 µg/mL | 25 µg/mL |  | 
Benzyl 7-[2-(2-trifluoroacetamidothiazol-4-yl)-2-methoxyiminoacetamido]-3-[(carbamoyloxy)methyl]-Δ^3 -O-2-isocephem-4-carboxylate (syn-isomer) [Example 4] | 0.78 µg/mL |  | 0.05 µg/mL | 0.1 µg/mL | ≤ 0.025 µg/mL | ≤ 0.025 µg/mL | 0.2 µg/mL | 6.25 µg/mL |  | 
